In US20250082717A1, “COMPOSITIONS FOR TREATING KIDNEY DISEASE” (RHYTHM PHARMACEUTICALS, INC., priority 2018, published 2025):
Entries after “also recorded” stand apart in the source; their conditions may differ.

Legend:
[1] = test system: BBS10^−/− mice on high-fat/high-glucose diet; assay: Escalating setmelanotide dosing study over 10 days, plasma leptin by ELISA; format: in vivo; conditions: obese BBS10^−/− mice on HF/HG diet; escalating doses 0.05-1.25 mg/kg over 10 days; disproportionate from body weight loss
Protocol: (§1) In order to assess the effect of setmelanotide on plasma leptin levels disproportionate from body weight loss, BBS10^−/− and wild type mice were fed a high fat/high glucose diet from weaning and body weight assessed on a weekly basis. At four months of age, mice were transferred to metabolic cages and acclimated for 3 days. An escalating setmelanotide dosing study over 10-days was conducted in accordance with regimen shown below in Table 1:
(§2) At the completion of the study, mice were sacrificed and blood and kidney collected for analysis of circulating leptin concentration and IL-23 mRNA expression, respectively. Plasma leptin concentrations were determined using a leptin ELISA kit (Catalog: #: EZML-82K, Millipore, Billerica, Massachusetts, USA). For analysis of renal IL-23 expression messenger RNA was extracted from tissue samples using TRIzol® reagent (#15596-018, Life Technologies, USA). […] The real-time quantitative PCR reaction was performed in a C1000™ thermocycler (CFX96, Real-Time System, BioRad, USA) using SYBR® Green. […] Results were analyzed with the CFX Manager™ software (BioRad, USA). Gene expression quantification was assessed by reporting measured levels relative to Gapdh expression in each separate sample.

[2] = test system: BBS10^−/− mice on high-fat/high-glucose diet; assay: Escalating setmelanotide dosing study over 10 days, renal IL-23 mRNA expression by real-time quantitative PCR; format: in vivo; conditions: obese BBS10^−/− mice on HF/HG diet; escalating doses 0.05-1.25 mg/kg over 10 days; relative to Gapdh
Protocol: as §1, §2

[3] = test system: BBS10^−/− mice; assay: Setmelanotide daily for one week, body weight and plasma and urine biomarker levels; format: in vivo
Protocol: In order to assess the effect of setmelanotide on body weight and the levels of certain biomarkers, BBS10^−/− mice were administered setmelanotide (1.25 mg/kg) daily for one week. […] However, setmelanotide treatment did result in an increase in urine calcium levels as well as an increase in urine creatine levels (FIG. 4).
Additional studies in these mice entailed measurement of blood plasma levels of the biomarkers leptin and adiponectin after treatment with setmelanotide (1.25 mg/kg). […] Further, the leptin: adiponectin ration was decreased in setmelanotide treated mice.

[4] = clinical trials (Chen et al. J. Clin. Endocrinol. Metab. 2015); cited from earlier work

SMILES: CC(=O)N[C@@H](CCCNC(=N)N)C(=O)N[C@H]1CSSC[C@@H](C(N)=O)NC(=O)[C@H](Cc2c[nH]c3ccccc23)NC(=O)[C@H](CCCNC(=N)N)NC(=O)[C@@H](Cc2ccccc2)NC(=O)[C@H](Cc2cnc[nH]2)NC(=O)[C@@H](C)NC1=O [setmelanotide, Ac-Arg-c (Cys-D-Ala-His-D-Phe-Arg-Trp-Cys)-NH2]
- plasma leptin levels [1]: lowers; also recorded: decrease
- renal IL-23 mRNA expression [2]: lowers; also recorded: normalization
- body weight ([3]; 1.25 mg/kg daily for one week): Lowered
- urine calcium levels ([3]; 1.25 mg/kg daily for one week): increase
- urine creatine levels ([3]; 1.25 mg/kg daily for one week, FIG. 4): increase
- blood plasma levels of leptin ([3]; 1.25 mg/kg, effect not seen in vehicle and pair-fed mice, FIG. 5A): decreasing levels
- blood plasma levels of adiponectin ([3]; 1.25 mg/kg, effect not seen in vehicle and pair-fed mice, FIG. 5B): increased levels
- leptin: adiponectin ration ([3]; 1.25 mg/kg, effect not seen in vehicle and pair-fed mice, FIG. 5C): decreased
- effect on blood pressure [4]: has not been shown to adversely affect blood pressure
